# Reference: patent US12344616B2, “Factor XIa inhibitors” (Merck Sharp & Dohme LLC, priority 2018, dated 2025)
# Read-outs that look alike come from different tables or passages of the source.
# Columns and labels:
# [1] = High-throughput (HT) solubility determination; type: physicochemical; details: kinetic from dmso stock
# Experimental: The chromatographic system consists of an Agilent 1290 UPLC/DAD system and ChemStation software, both from Agilent Technologies, USA. The separations are carried out on a Supelco Ascentis Express C18, 30 mm×3.0 mm I.D., 2.7 μm HPLC column. The mobile phase consists of Potassium phosphate buffered at pH 7 (mobile phase A) and acetonitrile (mobile phase B). The column oven temperature is set to 30° C. and the UPLC analysis consists of a gradient. The injection volume is 2 μL and the spectrophotometric detection is set to 215 and 238 nm.
# A 10 mM stock solution of the compound in DMSO is supplied for analysis. 2.5 μL of stock solution (10 mM) was diluted into 247.5 μL of organic co-solvents (10% MeCN/80% MeOH/10% DMSO, v/v/v) to create a standard solution of 100 μM. To create the solubility solutions, 4.1 μL of 10 mM DMSO stock solution was diluted into […] (PBS) (pH 7) solution. A second 4.1 μL aliquot of 10 mM DMSO stock solution was added to 196 μL of PBS (pH 2) solution. A third 4.1 μL aliquot of 10 mM DMSO stock solution was added to 196 μL of FaSSIF (pH 6.5) solution. Each solubility solution was sealed and shaken for 24 hours at 25° C. Filtered the equilibrated solubility solutions by centrifugation using a filter (0.45 μm, polypropylene). Placed 50 μL each of the 100 μM standard solution and the filtered equilibrated solubility solutions into a 384 well plate, and the plate was subsequently heat sealed.
# Analyzed each standard and solubility solution by UPLC/DAD. The solubility value was calculated by the following equation: Solubility=(Peak area of sample/Peak area of standard)(Standard concentration)
# [2] = biological target: Human plasma kallikrein (Homo sapiens (Human), UniProt P03952); experiment: Kallikrein assay (plasma kallikrein, pKal); type: biochemical; details: purified Human plasma kallikrein 0.5 nM, Acetyl-K-P-R-AFC substrate
# Chain of Human plasma kallikrein (P03952 391-638): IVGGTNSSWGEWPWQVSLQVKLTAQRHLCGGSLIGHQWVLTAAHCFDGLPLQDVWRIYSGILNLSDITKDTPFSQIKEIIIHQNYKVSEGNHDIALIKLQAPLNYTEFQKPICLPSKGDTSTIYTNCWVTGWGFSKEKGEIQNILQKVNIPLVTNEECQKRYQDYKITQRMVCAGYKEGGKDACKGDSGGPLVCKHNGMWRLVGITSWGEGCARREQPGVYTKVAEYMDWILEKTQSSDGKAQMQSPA
# Chain of Human plasma kallikrein (P03952 20-390 partner): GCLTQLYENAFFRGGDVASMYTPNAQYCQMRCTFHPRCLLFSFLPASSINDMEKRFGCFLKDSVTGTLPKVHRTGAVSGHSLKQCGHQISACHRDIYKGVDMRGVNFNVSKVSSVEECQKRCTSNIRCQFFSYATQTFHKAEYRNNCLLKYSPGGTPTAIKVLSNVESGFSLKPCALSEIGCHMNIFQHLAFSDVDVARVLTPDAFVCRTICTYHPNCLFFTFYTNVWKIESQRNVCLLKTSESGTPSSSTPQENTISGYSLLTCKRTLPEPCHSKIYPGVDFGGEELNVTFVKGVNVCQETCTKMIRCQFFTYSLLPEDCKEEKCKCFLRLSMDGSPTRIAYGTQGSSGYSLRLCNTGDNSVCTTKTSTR
# Experimental: The effectiveness of a compound of the present invention as an inhibitor of Kallikrein can be determined using a relevant purified serine protease, and an appropriate synthetic substrate. The rate of hydrolysis of the chromogenic or fluorogenic substrate by the relevant serine protease was measured both in the absence and presence of compounds of the present invention. Assays were conducted at room temperature or at 37° C. […] A decrease in the rate of fluorescence change in the presence of inhibitor is indicative of enzyme inhibition. Such methods are known to one skilled in the art. […] Determinations were made using purified Human plasma kallikrein at a final concentration of 0.5 nM (Enzyme Research Laboratories) and the synthetic substrate, Acetyl-K—P—R-AFC (Sigma #C6608) at a concentration of […].
# Activity assays were performed by diluting a stock solution of substrate at least tenfold to a final concentration ≤0.2 Km into a solution containing enzyme or enzyme equilibrated with inhibitor. Times required to achieve equilibration between enzyme and inhibitor were determined in control experiments. The reactions were performed under linear progress curve conditions and fluorescence increase measured at 405 Ex/510 Em nm. Values were converted to percent inhibition of the control reaction (after subtracting 100% Inhibition value). IC50 was determined by inflection point from a four parameter logistic curve fit. Ki was calculated using the Cheng Prusoff equation, Ki=IC50/(1+([S]/Km)).
# [3] = Rat screening IV/PO pharmacokinetics; type: in vivo; details: male, plasma, mean residence time, IV/PO procedure
# Experimental: Plasma pharmacokinetic parameters for clearance, volume of distribution, half-life, mean residence time (MRT) and oral bioavailability (% F)—were determined in rats from oral administration and IV administration studies. 4 male rats, typically weighing 225-260 gram, were fasted overnight prior to dosing. Compounds were prepared for oral and IV dosing by addition to a vehicle, depending on the dose used. For a typical preparation, 1 mg per mL (IV) or 1.5 mg per mL (oral) of test compound was added to vehicle comprised of 20% dimethyl sulfoxide (DMSO), 60% polyethylene glycol 400 (PEG400) and 20% water. IV formulation was administered to 2 rats via pre-cannulated jugular vein, and oral dosing was administered to 2 rats via oral gavage. Blood was collected by pre-cannulated artery, typically at predose, 2 min, 8 min, 15 min, 30 min, and 1, 2, 4, 6, and 8 hr postdose for IV, and at predose, 15 min, 30 min, and 1, 2, 4, 6, 8 hr for oral dosing. Samples were collected in K2EDTA tubes, stored on ice, and centrifuged. Plasma was transferred to a micro titer plate and stored at −70° C. until analysis. Plasma samples were extracted using protein precipitation and analyzed by liquid chromatography separation followed by mass spec detection (LCMS/MS), using a standard curve for each compound. Plasma pharmacokinetic parameters were calculated for IV and oral dosing data by non-compartmental methods. Oral bioavailability was determined as the ratio of the dose-normalized plasma area under the curve (AUC) following oral dosing vs. IV dosing.
# [4] = biological target: human Factor XIa (Homo sapiens (Human), UniProt P03951); experiment: Factor XIa assay; type: biochemical; details: human Factor XIa 0.04 nM, GPR-AFC substrate, 25° C.; read-out: FXIa IC50
# Chain of human Factor XIa (P03951 388-625): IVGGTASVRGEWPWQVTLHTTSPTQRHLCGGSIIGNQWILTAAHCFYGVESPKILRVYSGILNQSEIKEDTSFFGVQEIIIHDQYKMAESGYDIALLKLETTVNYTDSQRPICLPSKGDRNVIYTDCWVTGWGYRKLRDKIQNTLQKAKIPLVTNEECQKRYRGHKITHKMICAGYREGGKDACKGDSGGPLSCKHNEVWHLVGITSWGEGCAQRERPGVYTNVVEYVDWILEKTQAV
# Chain of human Factor XIa (P03951 19-387 partner): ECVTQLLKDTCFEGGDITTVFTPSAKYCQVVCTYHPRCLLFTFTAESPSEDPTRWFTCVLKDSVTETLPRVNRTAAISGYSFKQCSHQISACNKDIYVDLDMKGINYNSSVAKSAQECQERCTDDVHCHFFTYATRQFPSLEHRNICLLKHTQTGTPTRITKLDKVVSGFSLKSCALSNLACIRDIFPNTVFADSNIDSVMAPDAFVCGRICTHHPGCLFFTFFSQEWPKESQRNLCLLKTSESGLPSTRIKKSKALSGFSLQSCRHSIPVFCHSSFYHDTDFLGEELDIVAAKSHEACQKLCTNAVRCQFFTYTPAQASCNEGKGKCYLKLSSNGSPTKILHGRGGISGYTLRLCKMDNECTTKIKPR
# Experimental: The effectiveness of a compound of the present invention as an inhibitor of Coagulation Factor XIa can be determined using a relevant purified serine protease, and an appropriate synthetic substrate. The rate of hydrolysis of the chromogenic or fluorogenic substrate by the relevant serine protease was measured both in the absence and presence of compounds of the present invention. Assays were conducted at room temperature or at 37° C. […] A decrease in the rate of fluorescence change in the presence of inhibitor is indicative of enzyme inhibition. Such methods are known to one skilled in the art. The results of this assay are expressed as the half-maximal inhibitory concentrations (IC50), or the inhibitory constant, Ki.
# Compounds were pre-incubated for 30 minutes at 25° C. with human (0.04 nM) Factor XIa in 50 mM HEPES buffer with 150 mM sodium chloride, 5 mM calcium chloride, 0.1% PEG 8000, pH 7.4. Factor XIa enzymatic activity was determined by addition of the substrate glycine-proline-arginine-7-amido-4-trifluoromethylcoumarin (GPR-AFC) and measurement of the fluorescence at 400/505 nm after a 60 minute incubation at 25° C. The % inhibition for each data point was calculated from the data and analyzed using the log (inhibitor) vs. response four parameters equation to determine the half-maximal inhibitory concentrations (IC50). The IC50 were, converted to equilibrium inhibitory constants (Ki) using the Cheng-Prusoff equation.
# [5] = FaSSIF pH 6.5, 24 hours at 25° C., read-out: pH 6.5 (FaSSIF) solubility
# [6] = phosphate buffered saline (PBS) pH 2, aqueous buffer, PBS pH 2, 24 hours at 25° C., read-out: pH 2 solubility
SMILES,"solubility kinetic at 24 h [1, 5]","solubility kinetic at 24 h [1, 6]",IC50 [2],MRT [3],IC50 [4]
"COC(=O)Nc1ccc2c(c1)NC(=O)C(C)(C)CCC[C@H](c1ccc(-c3c(-n4cc(C(F)(F)F)cn4)ccc(F)c3F)c[n+]1[O-])c1nc-2c(C)[nH]1 [Example 1, (R,Z)-5-(2,3-difluoro-6-(4-(trifluoromethyl)-1H-pyrazol-1-yl)phenyl)-2-(2^4-((methoxycarbonyl)amino)-1^5,5,5-trimethyl-4-oxo-1^1H-3-aza-1(4,2)-imidazola-2 (1,2)-benzenacyclononaphane-9-yl)pyridine 1-oxide]",36 µM,> 200 µM,0.48 µM,5.8 h,0.0015 µM
"COC(=O)Nc1ccc2c(c1)NC(=O)C(C)(C)CCC[C@H](c1ccc(-c3cc(F)ccc3-n3cc(C(F)(F)F)cn3)c[n+]1[O-])c1nc-2c(C)[nH]1 [Example 2, (R.Z)-5-(5-fluoro-2-(4-(trifluoromethyl)-1H-pyrazol-1-yl)phenyl)-2-(2^4-((methoxycarbonyl)amino)-1^5,5,5-trimethyl-4-oxo-1^1H-3-aza-1(4,2)-imidazola-2(1,2)-benzenacyclononaphane-9-yl)pyridine 1-oxide]",53 µM,209 µM,1.08 µM,5.7 h,0.0029 µM
"COC(=O)Nc1ccc2c(c1)NC(=O)C(C)(C)CCC[C@H](c1ccc(-c3cc(F)ccc3-c3cnn(C(F)(F)F)c3)c[n+]1[O-])c1nc-2c(C)[nH]1 [Example 5, (R,Z)-5-(5-fluoro-2-(1-(trifluoromethyl)-1H-pyrazol-4-yl)phenyl)-2-(2^4-((methoxycarbonyl)amino)-1^5,5,5-trimethyl-4-oxo-1^1H-3-aza-1(4,2)-imidazola-2(1,2)-benzenacyclononaphane-9-yl)pyridine 1-oxide]",50 µM,146 µM,0.371 µM,4.5 h,0.002 µM
"COC(=O)Nc1ccc2c(c1)NC(=O)C(C)(C)CCC[C@H](c1ccc(-c3cc(Cl)cnc3OC(F)F)c[n+]1[O-])c1nc-2c(C)[nH]1 [Example 6, (R,Z)-5′-chloro-2′-(difluoromethoxy)-6-(2^4-((methoxycarbonyl)amino)-1^5,5,5-trimethyl-4-oxo-1^1H-3-aza-1(4,2)-imidazola-2(1,2)-benzenacyclononaphane-9-yl)-[3,3′-bipyridine]1-oxide]",55 µM,143 µM,0.443 µM,5.6 h,0.0044 µM

# These reach a lower IC50 [2]. Values come first.
"solubility kinetic at 24 h [1, 5]","solubility kinetic at 24 h [1, 6]",IC50 [2],MRT [3],IC50 [4],SMILES
27 µM,159 µM,0.042 µM,11 h,0.00089 µM,COC(=O)Nc1ccc2c(c1)NC(=O)C(C)(C)CCC[C@H](c1ccc(-c3cc(Cl)ccc3-n3cc(C(F)(F)F)cn3)c[n+]1[O-])c1nc-2c(C)[nH]1 [Example 3]
44 µM,166 µM,0.046 µM,2.7 h,0.0009 µM,"COC(=O)Nc1ccc2c(c1)NC(=O)C(C)(C)CCC[C@H](c1ccc(-c3cc(Cl)ccc3-n3cc(C(F)F)cn3)c[n+]1[O-])c1nc-2c(C)[nH]1 [Example 4, (R,Z)-5-(5-chloro-2-(4-(difluoromethyl)-1H-pyrazol-1-yl)phenyl)-2-(2^4-((methoxycarbonyl)amino)-1^5,5,5-trimethyl-4-oxo-1^1H-3-aza-1(4,2)-imidazola-2(1,2)-benzenacyclononaphane-9-yl)pyridine 1-oxide]"
